These results are taken from patent US20250099407A1, “2-AMINO BENZOPHENONE DERIVATIVES FOR TARGETED FERROPTOSIS INDUCTION IN CANCER THERAPY” (INDIAN INSTITUTE OF TECHNOLOGY KANPUR, priority 2023, published 2025).

Assay [1] relates to Huh-7 cells. Nature of the assay: Cell viability, luminescence-based CellTiter-Glo assay, Huh-7 cells. The note with it: Homo sapiens, Huh-7, Huh-7 cells, cell viability; read-out: EC50 Huh-7. Here is the method:
The viability of Huh-7 cells was recorded using a luminescence-based CellTiter-Glo® assay. The screening concentration of the molecules were 10 μM with or without Fer-1 (10 μM) in DMEM media (>0.1% DMSO as control).
Ferroptosis is a unique form of cell death mechanism mediated by the accumulation of lipid peroxides in cells which is distinct from healthy cells' apoptosis, a programmed […] route. We aimed to exploit the induction of ferroptosis in cancer cells using covalent small molecules as a potential strategy for cancer therapeutic development. […] We used various amide bond formation chemistry to construct the library members and these molecules are well characterized by various spectroscopic and mass spectrometry techniques. Once confirmed, these thiol reactive library members were screened in a cancer cell viability assay in combination with ferrostatin-1 (Fer-1), a ferroptosis inhibitor as depicted in FIG. 11. […] We have screened a total of ˜50 electrophilic small molecules to prevent the proliferation of hepatocellular carcinoma (Huh-7 cells) in combination with and without Fer-1. From our initial screening, we identified haloacetamides of 2-aminoalkylbenzophenone as potential ferroptosis inducers as depicted in FIG. 11.
(§1) The viability of screened cancer cells was recorded using a luminescence-based CellTiter-Glo® assay for the ATP quantification. The screening concentration of the molecule ranged from 100/10 μM to 45/4.5 nM with an 8-point-3-fold dilution series in DMEM media (>0.1% DMSO as control). Each experiment was conducted in more than two biological replicates with three technical replicates. The error bar is a representation of standard deviation among the technical replicates.
The viability of screened cancer cells was recorded using a luminescence-based CellTiter-Glo® assay for the ATP quantification. The screening concentration of IITK3002 ranged from 10 μM to 4.5 nM with an 8-point-3-fold dilution series in DMEM media (>0.1% DMSO as control). Each experiment was conducted in more than two biological replicates with three technical replicates. The error bar is a representation of standard deviation among the technical replicates. […]
a. Electrophilic Warhead Optimization: Once we identified 2-benzoylphenyl-a-haloacetamide as the lead scaffold, we have investigated the structure-activity-relationship analysis to precisely capture the effect of various chemical handles of the scaffold and use the knowledge to improve the overall potency and selectivity of this molecule to prevent cancer cell proliferation. First, we changed the haloacetamide electrophilic unit with various other electrophiles with a characteristic high, moderate, and weak reactivity with thiols when compared to chloroacetamide. Therefore, we opted vinylsulfonamide (highly reactivity), acrylamide (moderate reactivity), and phenoxyacetamides (weak reactivity warheads) for incorporation in the place of haloacetamide warhead of the top hit scaffold. Once synthesized, these molecules were evaluated to assess their antiproliferative potency against Huh-7 cells (Table 2). As expected, the introduction of weakly reactive electrophilic warheads, phenoxyactamides, completely lost the activity against Huh-7 cells. […] Perhaps, the secondary interactions of the electrophilic warhead with the target proteins might play additional roles. Therefore, we shifted our focus to optimize the rest of the core scaffold for further SAR analysis. b. Role of N-Substitutions: Next, we synthesized the NH-derivative of haloacetamides to capture the importance of N-alkylation on the activity of our hit molecule. […] Perhaps the hydrogen bonding induced planarity around the warhead influences the molecules' weakened potency. Conversely, the additional flexibility in the lead molecule (tertiary amide) might contribute to the strong antiproliferative activity of the hit molecule. […]

In assay [2] the test system is U2OS. Nature of the assay: Cell viability, CellTiter-Glo assay, U2OS. The format is cell-based. The note with it: Homo sapiens. On the procedure:
as §1
(§2) The viability of screened cancer cells was recorded using a luminescence-based CellTiter-Glo® assay for the ATP quantification. The screening concentration of IITK3002 ranged from 10 μM to 4.5 nM with an 8-point-3-fold dilution series in DMEM media (>0.1% DMSO as control). Each experiment was conducted in more than two biological replicates with three technical replicates. The error bar is a representation of standard deviation among the technical replicates.
(§3) a. […] In parallel, we have also synthesized the bromoacetamide (IITK3002) version of the lead molecules which is slightly more reactive with thiol nucleophiles when compared to chlorooacetamide warheads as depicted in FIG. 13. […] In addition, we also evaluated the molecules' antiproliferative potency against a panel of twelve different cancer phenotypes. The set of cancer cell lines included liver, breast, colon, myeloma, bone, blood, skin, brain and prostate lineages (FIG. 2, 3, Table 1).

The subject of assay [3] is PC3. The experiment in a line: Cell viability, CellTiter-Glo assay, PC3. The format is cell-based. The note with it: Homo sapiens, PC-3, PC3, cell viability. Here is the method:
as §1, §2, §3

In assay [4] the test system is 22Rv1. The experiment in a line: Cell viability, CellTiter-Glo assay, 22Rv1. The note with it: Homo sapiens, 22Rv1, 22Rv1, cell viability. The format is cell-based. On the procedure: as §1, §2, §3
Assay [5] concerns Huh-7 cells. Nature of the assay: Combination cell viability experiments with thiols, ferroptosis modulators and cell death inhibitors in Huh-7 cells. The format is cell-based. The note with it: combination with GSH, NAC, BSO, Fer-1, deferoxamine, RSL3, FIN56, Erastin, QVD-OPh, necrostatin-1; Huh-7 and 4T1. Here is the method:
FIG. 14 depicts a combination experiment indicates the involvement of thiol modulation by IITK3001/IITK3002 on the viability of Huh-7 and 4T1 cells, in accordance with an embodiment of the present invention. The viability of screened cancer cells was recorded using a luminescence-based CellTiter-Glo® assay for the ATP quantification. The screening concentration of (a) IITK3001 and (b) IITK3002 ranged from 10 uM to 4.5 nM with an 8-point-3-fold dilution series in DMEM medium (>0.1% DMSO as control). For combination experiments, 500 μM of NAC or glutathione and 25 μM of BSO were used. Each experiment was conducted in more than two biological replicates with three technical replicates. The error bar is a representation of standard deviation among the technical replicates.
(§4) FIG. 16 depicts ferroptosis induction as a cell death mechanism is established for IITK3001 using combination experiments with ferroptosis inducers and inhibitors, in accordance with an embodiment of the present invention. The screening concentration of (a) IITK3001 and (b) IITK3002 ranged from 10 μM to 4.5 nM with an 8-point-3-fold dilution series in DMEM medium (>0.1% DMSO as control). For combination experiments, Ferrostain-1 (10 μM),Deferoxamine (3 μM), RSL3 (10 nM), FIN56 (30 nM), glutamine (0.5 mM), glutamic acid (0.5 mM), Erastin (0.5 μM) were used. Each experiment was conducted in more than two biological replicates with three technical replicates. The error bar is a representation of standard deviation among the technical replicates.
as §4, with “18” for “16”, “IITK3002” for “IITK3001”, “of” for “of (a) IITK3001 and (b)”, “μM), Deferoxamine” for “μM),Deferoxamine”
FIG. 20 depicts combining apoptosis and necroptosis inhibitors ruled out the possibility of respective cell death mechanisms upon treatment with IITK3001 or IITK3002 in Huh-7 and 4T1 cells, in accordance with an embodiment of the present invention. The screening concentration of IITK3001/IITK3002 ranged from 10 μM to 4.5 nM with an 8-point-3-fold dilution series in DMEM medium (>0.1% DMSO as control). For combination experiments, QVD-OPh and Necrsotatin-1 (10 μM) were used. Each experiment was conducted in more than two biological replicates with three technical replicates. The error bar is a representation of standard deviation among the technical replicates.
FIG. 22 depicts ferroptosis induction was established for IITK3003 using combination experiments in Huh-7 cells, in accordance with an embodiment of the present invention. The screening concentration of IITK3002 ranged from 10 uM to 4.5 nM with an 8-point-3-fold dilution series in DMEM medium (>0.1% DMSO as control). For combination experiments, Ferrostain-1 ([…]), Deferoxamine (3 μM), RSL3 (10 nM), FIN56 (30 nM), glutamine (0.5 mM), glutamic acid (0.5 mM), Erastin (0.5 μM) were used. Each experiment was conducted in more than two biological replicates with three technical replicates. The error bar is a representation of standard deviation among the technical replicates.
FIG. 24 depicts ferroptosis induction was established for IITK3004 using combination experiments in Huh-7 cells, in accordance with an embodiment of the present invention. The screening concentration of the molecules (a) IITK3001 and (b) IITK3002 ranged from 10 μM to 4.5 nM with a 8-point-3-fold dilution series. […]

The subject of assay [6] is A549. Nature of the assay: Cell viability, A549. The note with it: Homo sapiens. The format is cell-based.

With `C#CCN(C(=O)CBr)c1ccccc1C(=O)c1ccccc1` [IITK3004, N-(2-benzoylphenyl)-2-bromo-N-(prop-2-yn-1-yl)acetamide], the EC50 amounted to 0.00464 µM in assay [1], 0.37 µM in assay [2], 0.13 µM in assay [3] and 0.12 µM in assay [4]. Also, the “cell death mechanism from combination experiments” value in assay [5] is listed as “exceptionally selective ferroptosis inducers”.
Take `O=C(c1ccccc1)c1ccccc1N(Cc1ccccc1)C(=O)COc1ccc(F)cc1` [IITK3037, N-(2-benzoylphenyl)-N-benzyl-2-(4-fluorophenoxy)acetamide]: the EC50 in assay [1], in assay [2], in assay [3], in assay [4] and in assay [6] was more than 20 µM in each case.
On to `CN(C(=O)COc1ccc(Br)cc1)c1ccccc1C(=O)c1ccccc1` [IITK3009, N-(2-benzoylphenyl)-2-(4-bromophenoxy)-N-methylacetamide], for which the EC50 in assay [1], in assay [2], in assay [3], in assay [4] and in assay [6] was more than 20 µM throughout.
With `CN(C(=O)COc1ccc(F)cc1)c1ccccc1C(=O)c1ccccc1` [IITK3006, N-(2-benzoylphenyl)-2-(4-fluorophenoxy)-N-methylacetamide], the EC50 in assay [1], in assay [2], in assay [3], in assay [4] and in assay [6] was more than 20 µM in each case.
With `C#CCN(C(=O)COc1ccc(F)cc1)c1ccccc1C(=O)c1ccccc1` [IITK3030, N-(2-benzoylphenyl)-2-(4-fluorophenoxy)-N-(prop-2-yn-1-yl)acetamide], the concentration giving a half-maximal response (EC50) was more than 100 µM in assay [1]; more than 20 µM in assay [2]; more than 20 µM in assay [3]; more than 20 µM in assay [4]; more than 20 µM in assay [6].
On to `CC(C)N(C(=O)CCl)c1ccccc1C(=O)c1ccccc1` [IITK3028, N-(2-benzoylphenyl)-2-chloro-N-isopropylacetamide], for which the half-maximal effective concentration (EC50) was 19.6 µM in assay [1]; more than 20 µM in assay [2]; more than 20 µM in assay [3]; more than 20 µM in assay [4]; more than 20 µM in assay [6].
With `C#CCN(C(=O)COc1ccc(Br)cc1)c1ccccc1C(=O)c1ccccc1` [IITK3033, N-(2-benzoylphenyl)-2-(4-bromophenoxy)-N-(prop-2-yn-1-yl)acetamide], the EC50 in assay [1], in assay [2], in assay [3], in assay [4] and in assay [6] was more than 20 µM in each case.
For the molecule `CC(C)(C)c1ccc(OCC(=O)N(Cc2ccccc2)c2ccccc2C(=O)c2ccccc2)cc1` [IITK3038, N-(2-benzoylphenyl)-N-benzyl-2-(4-(tert-butyl)phenoxy)acetamide], the concentration for a half-maximal effect (EC50) is more than 100 µM in assay [1]; more than 20 µM in assay [2]; more than 20 µM in assay [3]; more than 20 µM in assay [4]; more than 20 µM in assay [6].
